Laboratory results published in patent US20240239755A1, “SUBSTITUTED PYRIDAZINONES, SALTS OR N-OXIDES THEREOF AND THEIR USE AS HERBICIDALLY ACTIVE SUBSTANCES” (Bayer Aktiengesellschaft, priority 2021, published 2024).

How the values were obtained:
Type in all cases: in vivo
Kochia scoparia (KCHSC) [1] = assay: Herbicidal pre-emergence action, 1280 g/ha (Table A4); conditions: visual grading after ca. 3 weeks vs untreated controls
Excerpt: (§1) Seeds of mono- and dicotyledonous weed plants were sown in plastic pots (double sowings with one species of mono- and one species of dicotyledonous weed plants per pot), in sandy loam, and covered with soil. The compounds according to the invention, formulated in the form of wettable powders (WP) or as emulsifiable concentrates (EC), were applied to the surface of the covering soil as an aqueous suspension or as an emulsion, with the addition of 0.5% of an additive, at an application rate of 600 litres of water per hectare (converted). Following treatment, the pots were placed in a greenhouse and kept under optimum growth conditions for the test plants. The visual grading of the damage to the test plants was carried out after ca. 3 weeks in comparison to untreated controls (herbicidal effect in percent (%): 100% effect=plants have died, 0% effect=as control plants). Tables A1 to A11 below, show the effects of selected compounds of the general formula (I) according to Table 1 on various harmful plants and an application rate corresponding to 1280 g/ha obtained by the experimental procedure mentioned above.

[2] = system: Matricaria inodora (MATIN); assay: Herbicidal pre-emergence action, 1280 g/ha (Table A6); conditions: visual grading after ca. 3 weeks vs untreated controls
How it was run: (§2)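 Compounds were formulated as WP or EC and sprayed onto the covering soil of freshly sown pots (sandy loam) in 600 L water/ha with 0.5% additive. Pots were kept in a greenhouse, and damage was scored visually after ca. 3 weeks as % effect versus untreated controls (100% = dead).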

[3] = system: Amaranthus retroflexus (AMARE); assay: Herbicidal pre-emergence action, 1280 g/ha (Table A11); conditions: visual grading after ca. 3 weeks vs untreated controls
How it was run: as §2

[4] = system: Abutilon theophrasti (ABUTH); assay: Herbicidal post-emergence action, 1280 g/ha (Table B1); conditions: visual assessment after ca. 3 weeks vs untreated controls
How it was run: (§3)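 Foliar application to single-leaf weeds in sandy loam; percent kill judged visually ca. 3 weeks later relative to untreated plants.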

[5] = system: Matricaria inodora (MATIN); assay: Herbicidal post-emergence action, 1280 g/ha (Table B6); conditions: visual assessment after ca. 3 weeks vs untreated controls
How it was run: as §3

Setaria viridis (SETVI) [6] = assay: Herbicidal post-emergence action, 1280 g/ha (Table B8); conditions: visual assessment after ca. 3 weeks vs untreated controls
Excerpt: (§4) Seeds of mono- and dicotyledonous weed plants were sown in plastic pots (double sowings with one species of mono- and one species of dicotyledonous weed plants per pot), in sandy loam, covered with soil and grown under controlled growth conditions. 2 to 3 weeks after sowing, the test plants were sprayed in the single-leaf stage. The compounds according to the invention, formulated in the form of wettable powders (WP) or as emulsifiable concentrates (EC), were sprayed onto the green plant parts as an aqueous suspension or as an emulsion, with the addition of 0.5% of an additive, at an application rate of 600 litres of water per hectare (converted). The test plants were placed in the greenhouse for ca. 3 weeks under optimum growth conditions, and then the effect of the preparations was assessed visually in comparison with untreated controls (herbicidal effect in percent (%): 100% effect=plants have died, 0% effect=as control plants). Tables B1 to B11 below, show the effects of selected compounds of the general formula (I) according to Table 1 on various harmful plants using an application rate corresponding to 1280 g/ha obtained by the experimental procedure mentioned above.

Stellaria media (STEME) [7] = assay: Herbicidal post-emergence action, 1280 g/ha (Table B9); conditions: visual assessment after ca. 3 weeks vs untreated controls
How it was run: as §3

Veronica persica (VERPE) [8] = assay: Herbicidal post-emergence action, 1280 g/ha, VERPE; conditions: visual grading vs untreated controls
How it was run: (§5)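 Visual rating ~3 weeks after treatment: 0% equals untreated control, 100% means plants died. Treatment was a 1280 g/ha foliar spray (600 L water/ha, 0.5% additive, WP or EC formulation) applied to single-leaf-stage plants grown 2–3 weeks in sandy loam under controlled conditions.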

[9] = system: Amaranthus retroflexus (AMARE); assay: Herbicidal post-emergence action, 1280 g/ha, AMARE; conditions: visual grading vs untreated controls
How it was run: as §5

[10] = system: Matricaria inodora (MATIN); assay: Herbicidal post-emergence action, 320 g/ha, MATIN; conditions: visual grading after ca. 3 weeks
Excerpt: as §4, with “plants).” for “plants). Tables B1 to B11 below, show the effects of selected compounds of the general formula (I) according to Table 1 on various harmful plants using an application rate corresponding to 1280 g/ha obtained by the experimental procedure mentioned above.”
(§6) Tables D1 to D8 below, show the effects of selected compounds of the general formula (I) according to Table 1 on various harmful plants using an application rate corresponding to 320 g/ha obtained by the experimental procedure mentioned above.

Lolium rigidum (LOLRI) [11] = assay: Herbicidal pre-emergence action, 1280 g/ha (Table A5); conditions: visual grading after ca. 3 weeks vs untreated controls
How it was run: as §2

Stellaria media (STEME) [12] = assay: Herbicidal pre-emergence action, 1280 g/ha (Table A9); conditions: visual grading after ca. 3 weeks vs untreated controls
How it was run: as §2

Kochia scoparia (KCHSC) [13] = assay: Herbicidal post-emergence action, 1280 g/ha (Table B4); conditions: visual assessment after ca. 3 weeks vs untreated controls
How it was run: as §3

Lolium rigidum (LOLRI) [14] = assay: Herbicidal post-emergence action, 1280 g/ha (Table B5); conditions: visual assessment after ca. 3 weeks vs untreated controls
Excerpt: as §4

[15] = system: Abutilon theophrasti (ABUTH); assay: Herbicidal post-emergence action, 320 g/ha, ABUTH; conditions: visual grading after ca. 3 weeks
How it was run: (§7)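 Weeds grown in sandy loam were sprayed post-emergence at the single-leaf stage, 2–3 weeks after sowing. Compounds were formulated as WP or EC with 0.5% additive and applied at 320 g/ha in 600 L water/ha. After ~3 weeks in the greenhouse, damage was scored visually as % versus untreated controls (100% = dead).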

Kochia scoparia (KCHSC) [16] = assay: Herbicidal post-emergence action, 320 g/ha, KCHSC; conditions: visual grading after ca. 3 weeks
Excerpt: as §4, with “plants).” for “plants). Tables B1 to B11 below, show the effects of selected compounds of the general formula (I) according to Table 1 on various harmful plants using an application rate corresponding to 1280 g/ha obtained by the experimental procedure mentioned above.”
as §6

[17] = system: Amaranthus retroflexus (AMARE); assay: Herbicidal post-emergence action, 320 g/ha, AMARE; conditions: visual grading after ca. 3 weeks
How it was run: as §7

[18] = system: Abutilon theophrasti (ABUTH); assay: Herbicidal pre-emergence action, 1280 g/ha (Table A1); conditions: visual grading after ca. 3 weeks vs untreated controls
Excerpt: as §1

[19] = system: Echinochloa crus-galli (ECHCG); assay: Herbicidal post-emergence action, 1280 g/ha (Table B3); conditions: visual assessment after ca. 3 weeks vs untreated controls
Excerpt: as §4

Lolium rigidum (LOLRI) [20] = assay: Herbicidal pre-emergence action, 320 g/ha (Table C2); conditions: visual grading after ca. 3 weeks vs untreated controls
Excerpt: as §1, with “Tables C1” for “Tables A1”, “to C6” for “to A11”, “plants using” for “plants and”, “to 320” for “to 1280”

Stellaria media (STEME) [21] = assay: Herbicidal post-emergence action, 320 g/ha, STEME; conditions: visual grading after ca. 3 weeks
How it was run: as §7

Setaria viridis (SETVI) [22] = assay: Herbicidal pre-emergence action, 1280 g/ha (Table A8); conditions: visual grading after ca. 3 weeks vs untreated controls
Excerpt: as §1

Veronica persica (VERPE) [23] = assay: Herbicidal post-emergence action, 320 g/ha, VERPE; conditions: visual grading after ca. 3 weeks
Excerpt: as §4, with “plants).” for “plants). Tables B1 to B11 below, show the effects of selected compounds of the general formula (I) according to Table 1 on various harmful plants using an application rate corresponding to 1280 g/ha obtained by the experimental procedure mentioned above.”
as §6

Poa annua (POAAN) = assay: Herbicidal pre-emergence action, 1280 g/ha (Table A7); conditions: visual grading after ca. 3 weeks vs untreated controls
Excerpt: as §1

Stellaria media (STEME) [24] = assay: Herbicidal pre-emergence action, 320 g/ha, STEME; conditions: visual grading after ca. 3 weeks
How it was run: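 Percent herbicidal effect, graded by eye about 3 weeks after treatment relative to untreated pots (0% matching controls, 100% dead plants). Application of 320 g/ha onto soil covering freshly sown seeds, as aqueous suspension or emulsion plus 0.5% additive at 600 L/ha; pots kept in greenhouse.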

| SMILES | herbicidal effect KCHSC (Kochia scoparia (KCHSC) [1]) [%] | herbicidal effect MATIN [2] [%] | herbicidal effect AMARE [3] [%] | herbicidal effect ABUTH [4] [%] | herbicidal effect MATIN [5] [%] | herbicidal effect SETVI (Setaria viridis (SETVI) [6]) [%] | herbicidal effect STEME (Stellaria media (STEME) [7]) [%] | herbicidal effect VERPE (Veronica persica (VERPE) [8]) [%] | herbicidal effect AMARE [9] [%] | herbicidal effect LOLRI (Lolium rigidum (LOLRI) [11]) [%] | herbicidal effect STEME (Stellaria media (STEME) [12]) [%] | herbicidal effect KCHSC (Kochia scoparia (KCHSC) [13]) [%] | herbicidal effect LOLRI (Lolium rigidum (LOLRI) [14]) [%] | herbicidal effect ABUTH [15] [%] | herbicidal effect AMARE [17] [%] | herbicidal effect LOLRI (Lolium rigidum (LOLRI) [20]) [%] | herbicidal effect STEME (Stellaria media (STEME) [21]) [%] | other results |
| --- | --- | --- | --- | --- | --- | --- | --- | --- | --- | --- | --- | --- | --- | --- | --- | --- | --- | --- |
| CCOC(=O)Oc1c(C)nn(C)c(=O)c1Oc1cc(F)c(F)cc1Br [Example I-093] | 90 | 90 | 90 | 90 | 90 | 90 | 90 | 90 | 100 | – | – | – | – | – | – | – | – | herbicidal effect MATIN [10]: 90% |
| CCOC(=O)Oc1c(C)nn(C)c(=O)c1Oc1ccc(Cl)cc1C1CC1 [Example I-036] | – | 100 | – | 90 | 90 | 90 | 90 | 90 | 100 | 90 | 100 | 90 | 90 | 90 | 90 | – | – | herbicidal effect KCHSC (Kochia scoparia (KCHSC) [16]): 90% |
| CC(=O)Oc1c(C)nn(C)c(=O)c1Oc1ccccc1OC(F)(F)F [Example I-029] | 90 | 100 | 100 | 100 | 90 | – | 100 | 90 | 90 | 100 | 100 | 90 | 90 | 90 | 90 | 90 | 90 | herbicidal effect ABUTH [18]: 90%; herbicidal effect ECHCG [19]: 90% |
| CCOC(=O)Oc1c(C)nn(C)c(=O)c1Oc1cc(F)ccc1Br [Example I-088] | – | 100 | 100 | – | 90 | 90 | 90 | – | 100 | 100 | 90 | – | 90 | – | 90 | 90 | – | – |
| Cc1nn(C)c(=O)c(Oc2cc(Cl)ccc2C2CC2)c1O [Example I-071] | – | 100 | – | 100 | – | – | 100 | 90 | 100 | 100 | 90 | – | – | 100 | 90 | – | 90 | herbicidal effect ABUTH [18]: 90%; herbicidal effect SETVI (Setaria viridis (SETVI) [22]): 90% |
| Cc1nn(C)c(=O)c(Oc2cc(F)c(F)cc2C2CC2)c1O [Example I-101] | 100 | 100 | 100 | 100 | 90 | – | 100 | 100 | 100 | 100 | 100 | 90 | 90 | 90 | 90 | 90 | 90 | herbicidal effect SETVI (Setaria viridis (SETVI) [22]): 90%; herbicidal effect VERPE (Veronica persica (VERPE) [23]): 90% |
| Cc1nn(C)c(=O)c(Oc2ccccc2C(C)C)c1O [Example I-022] | 90 | 90 | 90 | 100 | 90 | – | 100 | – | 90 | 100 | 100 | – | 90 | 90 | 90 | 100 | 90 | herbicidal effect POAAN (Poa annua (POAAN)): 90%; herbicidal effect ECHCG [19]: 90%; herbicidal effect STEME (Stellaria media (STEME) [24]): 100% |
